We go through 20 compounds from patent publication US9873704B2, “Heterocyclic compounds and their uses” (Amgen Inc., priority 2009, dated 2018).

The test system of one assay is protein kinases.
Assay: not given
The settings on record: cited from earlier work.
Regarding `Cc1ccccc1-n1c(Cn2cnc3c(N)ncnc32)nc2cccc(C)c2c1=O` [IC87114], the “activity against any protein kinases tested” value is “no activity”.

The test system of a further assay is mouse model of rheumatoid arthritis.
Assay: not given
Conditions: in vivo; cited from earlier work.
Turning to `O=C1NC(=O)/C(=C\c2ccc3nccnc3c2)S1` [AS 605240], the “efficacy in a mouse model of rheumatoid arthritis” value is reported as “efficacious”.

For a further assay, the system named is model of systemic lupus erythematosis.
Assay: not given
The settings on record: in vivo; cited from earlier work.
On to `O=C1NC(=O)/C(=C\c2ccc3nccnc3c2)S1` [AS 605240], for which the “onset of disease in a model of systemic lupus erythematosis” value was “delay onset of disease”.

In another assay the test system is murine model of asthma.
Assay: not given
Conditions: ovalbumin-induced airway inflammation; cited from earlier work.
Take `Cc1ccccc1-n1c(Cn2cnc3c(N)ncnc32)nc2cccc(C)c2c1=O` [IC87114]: the “inflammation and disease in a murine model of asthma” value was “significantly ameliorate inflammation and disease”.

A further assay has as its target T1, p110δ (Homo sapiens, UniProt O00329).
T1 sequence (O00329 1-1044): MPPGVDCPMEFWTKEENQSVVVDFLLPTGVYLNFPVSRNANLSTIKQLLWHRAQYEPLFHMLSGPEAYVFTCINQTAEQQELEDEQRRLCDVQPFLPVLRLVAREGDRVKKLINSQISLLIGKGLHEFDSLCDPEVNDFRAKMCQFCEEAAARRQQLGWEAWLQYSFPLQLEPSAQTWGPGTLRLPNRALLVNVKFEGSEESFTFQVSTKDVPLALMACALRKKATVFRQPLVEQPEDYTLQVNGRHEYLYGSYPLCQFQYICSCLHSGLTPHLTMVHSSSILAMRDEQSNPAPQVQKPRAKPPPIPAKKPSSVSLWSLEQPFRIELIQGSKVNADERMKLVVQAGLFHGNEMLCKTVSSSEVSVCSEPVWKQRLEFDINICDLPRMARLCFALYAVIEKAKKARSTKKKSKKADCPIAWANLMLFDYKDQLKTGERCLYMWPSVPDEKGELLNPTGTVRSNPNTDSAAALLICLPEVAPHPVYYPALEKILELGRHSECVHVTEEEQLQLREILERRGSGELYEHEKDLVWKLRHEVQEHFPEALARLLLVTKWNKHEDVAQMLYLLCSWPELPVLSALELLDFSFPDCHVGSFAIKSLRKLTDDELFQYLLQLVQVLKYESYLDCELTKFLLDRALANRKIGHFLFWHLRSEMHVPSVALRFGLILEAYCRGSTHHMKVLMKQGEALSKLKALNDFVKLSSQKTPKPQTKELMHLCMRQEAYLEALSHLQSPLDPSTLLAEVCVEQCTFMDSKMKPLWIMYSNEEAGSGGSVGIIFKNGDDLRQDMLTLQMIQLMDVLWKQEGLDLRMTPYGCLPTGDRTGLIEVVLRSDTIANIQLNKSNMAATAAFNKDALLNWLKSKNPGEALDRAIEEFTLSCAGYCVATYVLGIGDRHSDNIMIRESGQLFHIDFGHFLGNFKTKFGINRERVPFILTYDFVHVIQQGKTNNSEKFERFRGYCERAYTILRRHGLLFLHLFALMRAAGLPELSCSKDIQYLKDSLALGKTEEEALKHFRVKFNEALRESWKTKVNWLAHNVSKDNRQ
Assay: not given
The settings on record: cited from earlier work.
Take `Cc1ccccc1-n1c(Cn2cnc3c(N)ncnc32)nc2cccc(C)c2c1=O` [IC87114]: the “inhibits p110δ” value was “high nanomolar range (triple digit)”.

The target of the next assay is T2, PI3Kδ (Homo sapiens, UniProt O00329).
T2 construct: Full length p110 subunits of PI3k α, β and δ, N-terminally labeled with polyHis tag; polyHis (N); made in house; host or cells: Sf9 insect cells (baculovirus)
T2 sequence (P27986 whole entry partner, one chain of several): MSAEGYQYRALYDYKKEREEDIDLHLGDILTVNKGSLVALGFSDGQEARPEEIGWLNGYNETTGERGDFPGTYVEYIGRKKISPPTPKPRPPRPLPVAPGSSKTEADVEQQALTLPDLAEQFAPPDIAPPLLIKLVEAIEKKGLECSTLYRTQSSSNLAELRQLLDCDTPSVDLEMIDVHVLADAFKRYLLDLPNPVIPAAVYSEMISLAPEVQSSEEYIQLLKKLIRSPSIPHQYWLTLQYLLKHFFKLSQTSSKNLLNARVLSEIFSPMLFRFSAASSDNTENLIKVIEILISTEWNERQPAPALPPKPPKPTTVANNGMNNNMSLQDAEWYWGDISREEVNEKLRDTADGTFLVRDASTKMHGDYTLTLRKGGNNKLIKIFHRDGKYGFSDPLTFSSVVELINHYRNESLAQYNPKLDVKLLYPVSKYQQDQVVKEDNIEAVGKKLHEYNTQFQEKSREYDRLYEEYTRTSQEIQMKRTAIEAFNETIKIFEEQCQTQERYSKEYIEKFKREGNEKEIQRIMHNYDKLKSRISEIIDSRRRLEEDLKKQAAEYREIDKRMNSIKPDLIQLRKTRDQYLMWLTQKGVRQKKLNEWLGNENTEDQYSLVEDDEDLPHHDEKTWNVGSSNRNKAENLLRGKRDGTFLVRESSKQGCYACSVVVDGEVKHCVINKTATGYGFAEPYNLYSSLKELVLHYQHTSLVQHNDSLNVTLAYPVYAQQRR
Nature of the assay: PI3Kδ Alphascreen assay. The class given is biochemical.
Settings: not given
The method, then:
Full length p110 subunits of PI3k α, β and δ, N-terminally labeled with polyHis tag, were coexpressed with p85 with Baculo virus expression vectors in sf9 insect cells. P110/p85 heterodimers were purified by sequential Ni-NTA, Q-HP, Superdex-100 chromatography. Purified α, β and δ isozymes were stored at −20° C. in 20 mM Tris, pH 8, 0.2M NaCl, 50% glycerol, 5 mM DTT, 2 mM Na cholate. […] The γ isozyme was purified by sequential Ni-NTA, Superdex-200, Q-HP chromatography. The γ isozyme was stored frozen at −80° C. in NaH2PO4, pH 8, 0.2M NaCl, 1% ethylene glycol, 2 mM β-mercaptoethanol.
A PI3K Alphascreen® assay (PerkinElmer, Waltham, Mass.) was used to measure the activity of a panel of four phosphoinositide 3-kinases: PI3Kα, PI3Kβ, PI3Kγ, and PI3Kδ. Enzyme reaction buffer was prepared using sterile water (Baxter, Deerfield, Ill.) and 50 mM Tris HCl pH 7, 14 mM MgCl2, 2 mM sodium cholate, and 100 mM NaCl. 2 mM DTT was added fresh the day of the experiment. The Alphascreen buffer was made using sterile water and 10 mM Tris HCl pH 7.5, 150 mM NaCl, 0.10% Tween 20, and 30 mM EDTA. 1 mM DTT was added fresh the day of the experiment. Compound source plates used for this assay were 384-well Greiner clear polypropylene plates containing test compounds at 5 mM and diluted 1:2 over 22 concentrations. Columns 23 and 24 contained only DMSO as these wells comprised the positive and negative controls, respectively. Source plates were replicated by transferring 0.5 uL per well into 384-well Optiplates (PerkinElmer, Waltham, Mass.).
Each PI3K isoform was diluted in enzyme reaction buffer to 2× working stocks. […] PI(4,5)P2 (Echelon Biosciences, Salt Lake City, Utah) was diluted to 10 μM and ATP was diluted to 20 μM. This 2× stock was used in the assays for PI3Kα and PI3Kβ. For assay of PI3Kγ and PI3Kδ, PI(4,5)P2 was diluted to 10 μM and ATP was diluted to 8 μM to prepare a similar 2× working stock. Alphascreen reaction solutions were made using beads from the anti-GST Alphascreen kit (PerkinElmer, Waltham, Mass.). Two 4× working stocks of the Alphascreen reagents were made in Alphascreen reaction buffer. In one stock, biotinylated-IP4 (Echelon Biosciences, Salt Lake City, Utah) was diluted to 40 nM and streptavidin-donor beads were diluted to 80 μg/mL. In the second stock, PIP3-binding protein (Echelon Biosciences, Salt Lake City, Utah) was diluted to 40 nM and anti-GST-acceptor beads were diluted to 80 μg/mL.
10 μL/well of the appropriate substrate 2× stock (containing 20 μM ATP for the PI3Kα and β assays and containing 8 μM ATP for the PI3Kγ and δ assays) was then added to Columns 1-24 of all plates. Plates were then incubated at room temperature for 20 minutes. In the dark, 10 μL/well of the donor bead solution was added to columns 1-24 of the plates to quench the enzyme reaction. The plates were incubated at room temperature for 30 minutes. Still in the dark, 10 μL/well of the acceptor bead solution was added to columns 1-24 of the plates. The plates were then incubated in the dark for 1.5 hours. The plates were read on an Envision multimode Plate Reader (PerkinElmer, Waltham, Mass.) using a 680 nm excitation filter and a 520-620 nm emission filter.
(In general: Alpha assays give light when donor and acceptor beads are brought close together.)
For orientation: Ki means the equilibrium dissociation constant of an inhibitor or competing ligand from its target. As to `COc1c(-c2ccccc2)c([C@@H](C)Nc2ncnc(N)c2C#N)nc2ccc(F)cc12` [(R)-4-amino-6-(1-(6-fluoro-4-methoxy-3-phenylquinolin-2-yl)ethylamino)pyrimidine-5-carbonitrile], the Ki was found to be 271 nM.

In turn, `C[C@@H](Nc1ncnc2[nH]cnc12)c1nc2ccc(F)cc2cc1-c1ccccn1` [(R)—N-(1-(6-fluoro-3-(pyridin-2-yl)quinolin-2-yl)ethyl)-9H-purin-6-amine] registered a Ki of 217 nM.

In the case of `C[C@@H](Nc1ncnc2[nH]cnc12)c1nc2ccc(F)cc2c(S(C)(=O)=O)c1-c1ccccc1` [(R)—N-(1-(6-fluoro-4-(methylsulfonyl)-3-phenylquinolin-2-yl)ethyl)-9H-purin-6-amine], the affinity, expressed as Ki, was 410 nM.

Turning to `C[C@H](Nc1ncnc(N)c1C#N)c1nc2ccc(F)cc2c(C(=O)NCCO)c1-c1ccccn1` [(S)-2-(1-(6-Amino-5-cyanopyrimidin-4-ylamino)ethyl)-6-fluoro-N-(2-hydroxyethyl)-3-(pyridin-2-yl)quinoline-4-carboxamide], the Ki turned out to be 7.57 nM.

`C[C@H](Nc1ncnc(N)c1C#N)c1nc2ccc(F)cc2c(C(=O)NC2CC2)c1-c1ccccn1` [(S)-2-(1-(6-Amino-5-cyanopyrimidin-4-ylamino)ethyl)-N-cyclopropyl-6-fluoro-3-(pyridin-2-yl)quinoline-4-carboxamide] came in with a Ki of 1.64 nM.

`COc1c(-c2cc(F)cc(F)c2)c([C@H](C)Nc2ncnc(N)c2C#N)nc2ccc(F)cc12` [(S)-4-Amino-6-(1-(3-(3,5-difluorophenyl)-6-fluoro-4-methoxyquinolin-2-yl)-ethylamino)pyrimidine-5-carbonitrile] had an inhibitory constant (Ki) of 68.4 nM.

As for `C[C@H](Nc1ncnc(N)c1C#N)c1nc2cccc(F)c2c(S(C)(=O)=O)c1-c1ccccc1` [(S)-4-Amino-6-(1-(5-fluoro-4-(methylsulfonyl)-3-phenylquinolin-2-yl)ethylamino)pyrimidine-5-carbonitrile], the affinity corresponds to a Ki of 1.3 nM.

Take `C[C@H](Nc1ncnc(N)c1C#N)c1nc2ccc(F)cc2cc1-c1cccc(S(C)(=O)=O)n1` [(S)-4-Amino-6-(1-(6-fluoro-3-(6-(methylsulfonyl)pyridin-2-yl)quinolin-2-yl)ethylamino)pyrimidine-5-carbonitrile]: the Ki amounted to 130 nM. Against the preceding compound, the Ki is about 100-fold higher.

`C[C@@H](c1nc2ccc(F)cc2cc1-c1ccccn1)n1nc(C#N)c2c(N)ncnc21` [(S)-4-amino-1-(1-(6-fluoro-3-(pyridin-2-yl)quinolin-2-yl)ethyl)-1H-pyrazolo[3,4-d]pyrimidine-3-carbonitrile]: the Ki came to 7.67 nM. Against the preceding compound, the Ki is about 17-fold lower.

As to `COc1c(-c2ccccc2)c([C@H](C)Nc2ncnc(N)c2C#N)nc2ccc(F)cc12` [(S)-4-amino-6-(1-(6-fluoro-4-methoxy-3-phenylquinolin-2-yl)ethylamino)pyrimidine-5-carbonitrile], the Ki amounted to 1.18 nM.

For `C[C@H](Nc1ncnc2[nH]cnc12)c1nc2ccc(F)cc2cc1-c1ccccn1` [(S)—N-(1-(6-Fluoro-3-(pyridin-2-yl)quinolin-2-yl)ethyl)-9H-purin-6-amine], the Ki came out at 4.15 nM. This Ki is about 3.5-fold higher than that of the compound before.

On to `C[C@H](Nc1ncnc2[nH]cnc12)c1nc2ccc(F)cc2c(S(C)(=O)=O)c1-c1ccccc1` [(S)—N-(1-(6-fluoro-4-(methylsulfonyl)-3-phenylquinolin-2-yl)ethyl)-9H-purin-6-amine], for which the affinity, expressed as Ki, was 1.12 nM.

Consider `COC(=O)c1c(-c2ccccc2)c(C(C)Nc2ncnc(N)c2C#N)nc2ccc(F)cc12` (centres unmarked) [Methyl 2-(1-(6-amino-5-cyanopyrimidin-4-ylamino)ethyl)-6-fluoro-3-phenylquinoline-4-carboxylate], for which the affinity corresponds to a Ki of 1.56 nM.

Take `CC(Nc1cc(N)ncn1)c1nc2ccc(F)cc2cc1-c1ccccn1` (centres unmarked) [N4-(1-(6-Fluoro-3-(pyridin-2-yl)quinolin-2-yl)ethyl)pyrimidine-4,6-diamine]: the Ki came to 3730 nM.

Turning to `CC(Nc1ncnc2[nH]cnc12)c1nc2cccc(F)c2c(S(C)(=O)=O)c1-c1ccccc1` (centres unmarked) [N-(1-(5-Fluoro-4-(methylsulfonyl)-3-phenylquinolin-2-yl)ethyl)-9H-purin-6-amine], the affinity, expressed as Ki, was 2.24 nM.

`CC(Nc1ccncn1)c1nc2ccc(F)cc2cc1-c1ccccn1` (centres unmarked) [N-(1-(6-Fluoro-3-(pyridin-2-yl)quinolin-2-yl)ethyl)pyrimidin-4-amine] had a Ki of 11600 nM.

`CC(Nc1ncnc2[nH]cnc12)c1nc2ccc(F)cc2c(S(C)(=O)=O)c1-c1ccccc1` (centres unmarked) [N-(1-(6-Fluoro-4-(methylsulfonyl)-3-phenylquinolin-2-yl)ethyl)-9H-purin-6-amine] displayed a Ki of 2.34 nM.

As to `C[C@@H](Nc1ccnc(N)n1)c1nc2ccc(F)cc2cc1-c1ccccn1` [N~4~-((1R)-1-(6-fluoro-3-(2-pyridinyl)-2-quinolinyl)ethyl)-2,4-pyrimidinediamine], the affinity, expressed as Ki, was 5520 nM. This Ki is about 2400-fold higher than that of the compound before.
